Experimental data: PMC6361841, “Repurposing of Drugs as Novel Influenza Inhibitors From Clinical Gene Expression Infection Signatures” (Frontiers in Immunology, 2019)

Legend:
[1] = system: A/Lyon/969/2009 H275Y (H1N1); type: cell-based, influenza virus
[2] = system: influenza A/Lyon/969/09 (H1N1)pdm09 virus; type: cell-based; details: basolateral medium replaced with fresh medium without drugs

COc1ccc([C@@H]2Sc3ccccc3N(CCN(C)C)C(=O)[C@@H]2OC(C)=O)cc1 [Diltiazem]
Viral titer [1]: 2.8 log TCID50/ml
Reversibility of inhibitory and protective properties [2]: progressively reversible

CCNCC(O)c1cccc(O)c1 (stereo not drawn) [Etilefrine]
Viral titer [1]: 2.8 log TCID50/ml
